Where two headings read alike, the source gives them in different places.
Columns and labels:
[1] = test system: Calu-6 cells; assay: Drug-treated clonogenic assay on siRNA-transfected cells; type: cell-based, Human
Description: (§1) Cells were transfected for 24 h and approximately 600 cells (for Calu-6) or 150 cells (for H460) were seeded into each well of a 6-well plate and allowed to attach for 4-6 h. The cell lines used in this study were not subject to prior drug selection, and are likely to represent intrinsic drug resistance observed in lung carcinoma.
(§2) Cells were then treated with increasing concentrations of various anti-mitotic drugs. Following a 3-day incubation at 37° C., the drug-containing medium was removed and replaced with fresh complete medium. Medium was changed at 3-4 day intervals for 7 to 10 days until visible colonies formed. […] Surviving colonies were simultaneously fixed and stained with 0.5% crystal violet in methanol, rinsed with water to remove excess stain and air-dried overnight.
(§3) The colonies in each well were manually counted, and the results were presented as surviving fraction according to the formula: surviving fraction was calculated as follows: colony number/(number of cells seeded×plating efficiency), where plating efficiency is equivalent to the colony number divided by the number of cells seeded in the drug-free medium. Dose-response curves were plotted for each drug-cell line combination and inhibitory dose (ID50) values were extrapolated from this curve using GraphPad Prism program (GraphPad Software, version 4, San Diego, Calif.). ID50 was defined as the concentration of the drug required to reduce the number of colonies in drug-treated wells to 50% of that of the relevant untreated control wells. The ID50 values were the means of at least four independent experiments.
(§4) To quantitate any change in drug sensitivity, drug treated clonogenic assays were performed. Twenty-four hours after siRNA transfection, cells were harvested and plated into 6-well plates for 6 h, prior to the addition of various drugs as indicated in the figure legends. After 72 h incubation, the drug-containing media was removed and replaced with complete growth media. Medium was changed every 3 days for 7 to 10 days until visible colonies formed. Colonies were simultaneously fixed and stained with 0.5% crystal violet in methanol, and manually counted. Individual stained colonies in each well were counted and the surviving fraction was calculated as follows: colony number/(number of cells seeded×plating efficiency), where plating efficiency equals the colony number divided by the number of cells seeded in drug-free media.

[2] = test system: Calu-6 cells; assay: Immunofluorescent staining of microtubules (α-tubulin) after drug treatment; type: cell-based, Human; settings: 1 h, vs control
Description: Transfected Calu-6 cells were grown on sterile chamber slides until 60-70% confluent. Cells were then treated with paclitaxel and vincristine for 1 h at 10 nM. Cells were fixed in methanol and processed for staining as previously described (Don et al. (2004) supra) with minor modifications. Fixed cells were stained with α-tubulin (1:400 in 5% FCS/PBS, Sigma) for 30 min followed by Cy2 anti-mouse fluorescent tagged antibody (1:1,000 in 5% FCS/PBS, GE Healthcare). Slides were mounted on a coverslip using DAPI II Counterstain (Vysis Inc., Downers Grove, Ill.). Slides were viewed using a Zeiss Axioplan 2 Immunofluorescence Microscope (Mannheim, Germany) with Image-Pro® Plus 4.1 software (Media Cybernetics, L.P., Silver Spring, Md.).
To assess the effects of βIII downregulation on microtubule organization, immunofluorescence staining was performed on transfected Calu-6 cells as follows. Briefly, siRNA transfected cells were plated in glass chamber slides and allowed to reach 70% confluence. Cells were then treated with 10 nM of paclitaxel or vincristine for 1 hour. Drug was then removed by washing cells with PBS and blocked in 10% FCS/PBS. For dual staining, cells were first labelled with an antibody to class III β-tubulin which was exposed to cells incubated at 37° C. for 30 minutes in a humidified chamber. Following washes in 0.1% Tween 20/PBS at room temperature, the slides were incubated with Cy3 anti-mouse fluorescent-tagged antibody (GE Healthcare) for 40 minutes in a humidified chamber in the dark at room temperature. Following incubation, the slides were washed again in 0.1% Tween 20/PBS. This was then followed by staining with α-tubulin and Cy2 anti-mouse fluorescent tagged antibody (GE Healthcare). Slides were mounted on a coverslip using DAPI II Counterstain (Vysis Inc., Downers Grove, Ill.). Immunofluorescence microscopy was performed and images were captured using a Sensicam Charged Coupled Device camera (PCO Imaging, Kelheim, Bavaria, Germany) and the Image-Pro® Plus 4.1 software (Media Cybernetics, L.P., Silver Spring, Md.).

[3] = test system: CCRF-CEM Leukaemia cells; type: cell-based; settings: 2ME2-resistant sublines
Description: The tubulin-binding agent 2-methoxyestradiol (2ME2) binds to β-tubulin near the colchicine-binding site, inhibits microtubule polymerization, and induces mitotic arrest. CCRF-CEM Leukaemia cells that display increasing resistance to 2ME2 were selected, and four of the highly 2ME2 resistant leukaemia sublines were chosen for detailed analysis.

[4] = test system: NSCLC H460 cells; assay: Drug-treated clonogenic assay (surviving fraction, ID50) on siRNA/shRNA-transfected cells; type: cell-based, Human; settings: for IC50: Homo sapiens; for change in drug sensitivity (clonogenic survival): H460
Description: as §1, §2, §3, §4

[5] = class II β-tubulin siRNA knockdown vs controls
[6] = class IVb β-tubulin siRNA knockdown vs controls

Q: Which results are given for CC(=O)O[C@H]1C(=O)[C@@]2(C)[C@H]([C@H](OC(=O)c3ccccc3)[C@]3(O)C[C@H](OC(=O)[C@H](O)[C@@H](NC(=O)c4ccccc4)c4ccccc4)C(C)=C1C3(C)C)[C@]1(OC(C)=O)CO[C@@H]1C[C@@H]2O [Paclitaxel, paclitaxel]?
A: change in drug sensitivity (clonogenic survival) [1, 5]: did not significantly potentiate the cytotoxicity; change in drug sensitivity (clonogenic survival) [1, 6]: no effect on sensitivity; microtubule morphology ([2]; βII siRNA-transfected Calu-6, 10 nM drug): did not appear significantly different; microtubule morphology ([2]; βIII siRNA-transfected Calu-6, 10 nM drug): extensive disruption of the microtubule cytoskeleton; cross-resistance of the 2ME2-resistant cells [3]: not cross resistant; IC50 ([4]; NCI-H460, Table 2, 27-mer βIII siRNA Sequence-8 H460 cells, read-out: ID50 ± SEM): 1.7 ± 0.043 nM; IC50 ([4]; NCI-H460, Table 2, 27-mer βIII siRNA Sequence-11 H460 cells, read-out: ID50 ± SEM): 1.78 ± 0.07 nM; IC50 ([4]; NCI-H460, Table 2, Ctrl-1 (27-mer control siRNA) H460 cells, read-out: ID50 ± SEM): 2.89 ± 0.165 nM; IC50 ([4]; NCI-H460, Table 2, mock-transfected H460 cells, read-out: ID50 ± SEM): 2.63 ± 0.136 nM; IC50 ([4]; NCI-H460, Table 3, H460 Ctrl clone 1, read-out: Paclitaxel ID50 ± SEM): 2.75 ± 0.131 nM; IC50 ([4]; NCI-H460, Table 3, H460 Ctrl clone 2, read-out: Paclitaxel ID50 ± SEM): 2.83 ± 0.093 nM; IC50 ([4]; NCI-H460, Table 3, H460 βIII shRNA clone 4, read-out: Paclitaxel ID50 ± SEM): 1.36 ± 0.087 nM; IC50 ([4]; NCI-H460, Table 3, H460 βIII shRNA clone 59, read-out: Paclitaxel ID50 ± SEM): 1.78 ± 0.07 nM; IC50 ([4]; NCI-H460, Table 3, H460 βIII shRNA clone 60, read-out: Paclitaxel ID50 ± SEM): 1.58 ± 0.095 nM; RS (relative sensitivity) ([4]; Table 2, 27-mer βIII siRNA Sequence-8 H460 cells): (1.55, <0.0001***); RS (relative sensitivity) ([4]; Table 2, 27-mer βIII siRNA Sequence-11 H460 cells): (1.42, 0.0001***); RS (relative sensitivity) ([4]; Table 2, Ctrl-1 H460 cells): (0.91, NS); RS (relative sensitivity) ([4]; Table 3, Ctrl clone 2 compared to ctrl clone 1): (0.97, NS); RS (relative sensitivity) ([4]; Table 3, βIII shRNA clone 4 compared to ctrl clone 1): (2.03, <0.0001***); RS (relative sensitivity) ([4]; Table 3, βIII shRNA clone 59 compared to ctrl clone 1): (1.55, <0.0001***); RS (relative sensitivity) ([4]; Table 3, βIII shRNA clone 60 compared to ctrl clone 1): (1.74, <0.0001***); change in drug sensitivity (clonogenic survival) [4, 5]: did not significantly potentiate the cytotoxicity; change in drug sensitivity (clonogenic survival) [4, 6]: did not significantly enhance the cytotoxicity; change in drug sensitivity (clonogenic survival) ([4]; βIII-tubulin siRNA silencing vs controls): significant increase in sensitivity

From patent publication US20100159030A1, “METHODS FOR DETECTING AND MODULATING THE SENSITIVITY OF TUMOR CELLS TO ANTI-MITOTIC AGENTS AND FOR MODULATING TURMORGENICITY” (NewSouth Innovations Pty Limited, priority 2007, published 2010)
